Holding throughout (assay): NCI anticancer screen, dose series, 48 h
For assay [1], the system named is DMS 114 small cell lung.
The test system of assay [2] is U251 CNS.
Assay [3] relates to HOP-18 NSCLC.
For assay [4], the system named is SF-539 CNS.
Assay [5] concerns NCI-H23 lung.
The test system of assay [6] is SNB-75 CNS.
Assay [7] has as its system DLD-1 colon.
For assay [8], the system named is HL-60(TB) leukemia.
Assay [9] has as its system HS 578T breast.
Assay [10] has as its system BT-549 breast.

Values joined by “and” are separate entries in the source; they are usually repeats but may differ in a detail not shown here. Equal values may be shown once.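 Compound exposure: 48 hours, 5 concentrations, 96-well plates. Here, GI50 denotes the concentration required for 50% inhibition of growth. TGI denotes the concentration required for complete inhibition of growth.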

For the compound `NC(=O)NCc1c(C(N)=O)ncn1Cc1ccccc1`, the TGI in [1], in [2], in assay [3], in assay [4], in [5] and in assay [6] was above 100 µM each time. The TGI in assay [7] and in assay [8] was above 100 µM each time.
For `COc1ccc(OC)c2c(C(=O)O)c(Cc3ccccc3)ccc12`, the TGI in assay [1], in assay [2], in [3], in [5], in assay [6] and in assay [7] was above 100 µM throughout. In [8], this compound returned a TGI above 100 µM.
As to `CCCCCCCCCCCC(=O)OCC1OC(OC)C(NC(=O)N(CCCl)N=O)C(O)C1O` (configuration not stated), the TGI in assay [1] was 39 µM; in assay [2], 26.1 µM; in assay [3], above 100 µM; in [4], 14.8 µM; in assay [6], 52.8 µM; in assay [7] it was 52.3 µM.
On to `CCN(CC)c1ccc(N=Nc2ccc(-c3nc4ccc[n+](C)c4s3)cc2)cc1`, for which the TGI in assay [2] stood at 27.1 µM; in assay [3] it was 31.3 µM; in assay [4], 23 µM; in assay [5], 24.9 µM; in assay [6], 27.5 µM.
For `COc1ccc2nc(NC(=O)C(=O)C(C#N)c3ccc([N+](=O)[O-])cc3)sc2c1` (configuration not stated), the TGI in assay [1], in assay [2], in [3], in assay [4], in [5] and in assay [6] was above 100 µM each time. In addition, the TGI in [7] is above 100 µM.
Regarding `C=CCc1ccc(Oc2cc(CC=C)c3c(c2O)O[C@@H](CO)[C@H]3c2ccc(O)c(-c3cc(CC=C)ccc3O)c2)cc1`, the TGI in assay [1] is 54.6 µM; in assay [2] it was 51.8 µM; in [3], above 100 µM; in assay [4], above 100 µM; in [5], above 100 µM; in [6], above 100 µM. Further, the TGI in assay [7] is above 100 µM; in assay [8], 55.3 µM.
For `Nc1ccc2cc3ccc(N)cc3nc2c1`, the TGI is 3.03 µM in assay [1]; 11.4 µM and 10.4 µM and 9.94 µM in [2]; 8.41 µM in [3]; 4.54 µM [middle of 4 runs] in assay [4]; 6.59 µM and 7.97 µM and 9.65 µM in assay [9]; 10.4 µM and 16.2 µM and 12 µM in assay [10]. In addition, the TGI in assay [6] was 3.25 µM [middle of 4 runs]; in assay [7] it was 10.5 µM. The GI50 in assay [4] is 1.56 µM; in [10], 1.91 µM; in [5], 1.58 µM [middle of 4 runs].
In the case of `Clc1ccc2c(c1)-c1c3c(nn1-c1ccccc1)-c1ccccc1SC3O2` (configuration not stated), the TGI in assay [1], in [2], in [3], in assay [4], in [5] and in assay [6] was above 100 µM in each case. In assay [8], this compound gave a TGI above 100 µM.
For the compound `C/C(N=NC(=S)N(C)C)=C1\C=CC=CN1O`, the TGI in assay [2], in assay [3], in assay [4], in [9], in [10] and in assay [5] was above 100 µM throughout. Also, the TGI in assay [6] was above 100 µM; in [7], above 21.2 µM; in assay [8], above 53 µM. The same compound returned a GI50 in assay [4] below 0.1 µM.
For the compound `O=c1c2cc(Br)cc(Br)c2nc(CCCl)n1CCO`, the TGI is above 100 µM in assay [1]; above 100 µM in [2]; above 100 µM in assay [4]; above 100 µM in assay [5]; 93.5 µM in assay [6]; above 100 µM in assay [7]. The compound further had a TGI in [8] above 100 µM.
As for `CN(C)c1cc[c]([Sn]([c]2ccc(N(C)C)cc2)([c]2ccc(N(C)C)cc2)[c]2ccc(N(C)C)cc2)cc1`, the GI50 in assay [1] was 3.15 µM; in assay [2], 8.02 µM; in [3], 8.77 µM; in assay [4], 15.8 µM; in assay [5], 5.88 µM; in assay [6], 4.36 µM. Besides, the GI50 in [8] is 1.89 µM. Further, the TGI in [1] was 13.8 µM; in [2] it was 21.2 µM; in [3], 32.9 µM; in assay [4], 33.4 µM; in [5] it was 32.3 µM; in [6], 17.2 µM. In assay [8], this compound registered a TGI of 6.93 µM.
With `O=C1[C@@H]2C(c3ccccc3F)=NO[C@@H]2C(=O)N1c1ccc(Cc2ccc(N3C(=O)[C@H]4C(c5ccccc5F)=NO[C@H]4C3=O)cc2)cc1`, the TGI in assay [1], in assay [2], in assay [3], in assay [4], in [5] and in assay [6] was above 100 µM each time. Besides, the TGI was above 100 µM in assay [7] and 34.7 µM in assay [8].
With `Cc1c(C(=O)/C=C/c2ccccc2)[n+](=O)c2ccccc2n1[O-]`, the TGI in assay [1] was 22.2 µM; in [2], 29.7 µM; in [3] it was 57 µM; in assay [4], 29.7 µM; in [5] it was 29.5 µM; in assay [6], 64.7 µM. Also, the TGI is 27.5 µM in assay [7] and 40.7 µM in assay [8].
Turning to `C1C[OH+]CC[OH+]CC[OH+]CC[OH+]CC[OH+]1.[Cl-].[V]`, the GI50 in [1] was above 100 µM; in [2], 50.4 µM; in [3], 60.6 µM; in assay [4] it was 16.5 µM; in assay [5], 76.9 µM; in assay [6] it was 16.2 µM. Also, the GI50 in assay [7] and in assay [8] was above 100 µM throughout. In addition, the TGI was above 100 µM in assay [1]; above 100 µM in assay [2]; above 100 µM in [3]; 31.6 µM in assay [4]; above 100 µM in [5]; 41.2 µM in assay [6]. The TGI in [7] and in [8] was above 100 µM throughout.
